# How the values were obtained:
# [1] = biological target: T1, Human Tryptophan 2,3-dioxygenase (TDO) (Homo sapiens, UniProt P48775); assay: Human TDO enzymatic assay (kynurenine level); type: biochemical; conditions: 1 nM TDO, 350 μM L-Trp; geometric mean; read-out: TDO GMean: IC50 (μM) (Biochemical Assay)
# T1 construct: His tag (N); made in house; host or cells: E. coli
# Description: (§1) Human Indoleamine 2,3-dioxygenase (IDO) and Tryptophan 2,3-dioxygenase (TDO) enzymatic assay
# (§2) Human IDO or TDO with N-terminal His tag is purified in E. coli. The IDO enzymatic assay is performed using 6 nM IDO and 10 μM L-Trp in the presence of 10 mM ascorbic acid, 5 μM methylene blue, 100 nM catalase and 0.01% Tween 20 in 50 mM sodium phosphate buffer (pH 6.5). 19 μL of above reaction mixture is added to wells of 384 well reaction plate containing […] of various concentrations of test compound or DMSO vehicle and incubated for 20 minutes at room temperature. The TDO enzymatic reaction assay is performed using 1 nM TDO and 350 μM L-Trp in the presence of 10 mM ascorbic acid, 0.4 μM methylene blue, 100 nM catalase and 0.01% Tween 20 in 50 mM sodium phosphate buffer (pH 6.5). 19 μL of above reaction mixture is added to wells of 384 well reaction plate containing 1 μL of various concentrations of test compound or DMSO vehicle and incubated for 70 minutes at room temperature. 16 wells containing all the components of reaction mixture and 5% DMSO serve as high control. 16 well containing all the components except enzyme of reaction mixture and 5% DMSO serves as low control. Both IDO and TDO enzymatic reactions are stopped by addition of […] of 30% TCA and incubated 30 minutes at 50° C. to hydrolyze N-formylkynurenine produced by IDO or TDO to kynurenine. Upon measuring the kynurenine level, the percentage inhibition is calculated at individual concentrations relative to high and low controls. The data is analyzed by using nonlinear regression to generate IC50 values.
# [2] = biological target: T2, Human Indoleamine 2,3-dioxygenase (IDO) (Homo sapiens, UniProt P14902); assay: Human IDO enzymatic assay (kynurenine level); type: biochemical; conditions: 6 nM IDO, 10 μM L-Trp; geometric mean; read-out: IDO1 GMean: IC50 (μM) (Biochemical Assay)
# T2 construct: His tag (N); made in house; host or cells: E. coli
# Description: as §1, §2
# T1 sequence (P48775 whole entry): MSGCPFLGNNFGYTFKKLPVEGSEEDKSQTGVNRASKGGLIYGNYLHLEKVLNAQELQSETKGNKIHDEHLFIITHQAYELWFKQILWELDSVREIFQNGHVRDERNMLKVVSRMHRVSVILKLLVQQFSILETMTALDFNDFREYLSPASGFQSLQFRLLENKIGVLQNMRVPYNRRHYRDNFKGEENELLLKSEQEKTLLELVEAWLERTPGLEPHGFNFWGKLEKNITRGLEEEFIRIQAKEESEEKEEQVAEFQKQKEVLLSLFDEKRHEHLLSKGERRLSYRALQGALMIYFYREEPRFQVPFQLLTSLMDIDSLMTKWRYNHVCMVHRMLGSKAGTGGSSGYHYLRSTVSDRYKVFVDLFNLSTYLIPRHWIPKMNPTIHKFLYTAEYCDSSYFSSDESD
# T2 sequence (P14902 whole entry): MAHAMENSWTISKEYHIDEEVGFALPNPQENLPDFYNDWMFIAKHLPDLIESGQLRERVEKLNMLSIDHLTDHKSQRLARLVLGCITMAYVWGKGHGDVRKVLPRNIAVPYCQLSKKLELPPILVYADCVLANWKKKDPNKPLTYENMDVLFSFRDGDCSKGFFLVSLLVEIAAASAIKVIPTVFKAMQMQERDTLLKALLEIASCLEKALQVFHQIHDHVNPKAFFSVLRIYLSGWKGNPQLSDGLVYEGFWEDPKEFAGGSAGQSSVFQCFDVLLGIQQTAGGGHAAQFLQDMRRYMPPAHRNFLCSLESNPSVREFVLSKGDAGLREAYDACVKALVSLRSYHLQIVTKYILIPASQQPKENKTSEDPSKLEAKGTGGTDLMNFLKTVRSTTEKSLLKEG
SMILES,IC50 [1],IC50 [2]
"O=C(Cc1ccc(F)c(Cl)c1)N1CCC(C(F)(F)[C@H](O)c2cc(Cl)cc3cn[nH]c23)CC1 [Compound P-0572, (R)-1-(4-(2-(5-chloro-1H-indazol-7-yl)-1,1-difluoro-2-hydroxyethyl)piperidin-1-yl)-2-(3-chloro-4-fluorophenyl)ethan-1-one]",0.0001 to 10 µM,0.0001 to 10 µM
"CC(C)(C1CCN(C(=O)NCc2ccc(F)cn2)CC1)[C@H](O)c1cc(Cl)cc2cn[nH]c12 [Compound P-0601, (S)-4-(1-(5-chloro-1H-indazol-7-yl)-1-hydroxy-2-methylpropan-2-yl)-N-((5-fluoropyridin-2-yl)methyl) piperidine 1-carboxamide]",0.0001 to 10 µM,0.0001 to 10 µM
"C[C@H](CO)NC(=O)N1CCC(C(C)(C)[C@H](O)c2cc(Cl)cc3cn[nH]c23)CC1 [Compound P-0668, 4-((S)-1-(5-chloro-1H-indazol-7-yl)-1-hydroxy-2-methylpropan-2-yl)-N-((R)-1-hydroxypropan-2-yl)piperidine-1-carboxamide]",0.0001 to 10 µM,0.0001 to 10 µM
"CC(C)(C1CCN(C(=O)NCc2ccc(F)cc2)CC1)[C@H](O)c1cc(Cl)cc2cn[nH]c12 [Compound P-0602, (S)-4-(1-(5-chloro-1H-indazol-7-yl)-1-hydroxy-2-methylpropan-2-yl)-N-(4-fluorobenzyl) piperidine-1-carboxamide]",0.0001 to 10 µM,0.0001 to 10 µM
"CC(C)(C1CCN(C(=O)NCc2ccc(C#N)nc2)CC1)[C@H](O)c1cc(Cl)cc2cn[nH]c12 [Compound P-0590, (S)-4-(1-(5-chloro-1H-indazol-7-yl)-1-hydroxy-2-methylpropan-2-yl)-N-((6-cyanopyridin-3-yl)methyl)piperidine-1-carboxamide]",0.0001 to 10 µM,0.0001 to 10 µM
"CC(C)(C1CCN(C(=O)NCC2(O)COC2)CC1)[C@H](O)c1cc(Cl)cc2cn[nH]c12 [Compound P-0667, (S)-4-(1-(5-chloro-1H-indazol-7-yl)-1-hydroxy-2-methylpropan-2-yl)-N-((3-hydroxyoxetan-3-yl)methyl)piperidine-1-carboxamide]",0.0001 to 10 µM,0.0001 to 10 µM
OC(c1cccc(OCc2ccccc2)c1)c1cccc2cncn12 (centres unmarked) [Compound P-0071],10 to 100 µM,0.0001 to 10 µM
"CNC(=O)CNC(=O)N1CCC(C(C)(C)[C@H](O)c2cc(Cl)cc3cn[nH]c23)CC1 [Compound P-0583, (S)-4-(1-(5-chloro-1H-indazol-7-yl)-1-hydroxy-2-methylpropan-2-yl)-N-(2-(methylamino)-2-oxoethyl)piperidine-1-carboxamide]",0.0001 to 10 µM,0.0001 to 10 µM
"CC(C)(C1CCN(C(=O)NCC(=O)O)CC1)[C@H](O)c1cc(Cl)cc2cn[nH]c12 [Compound P-0673, (S)-(4-(1-(5-chloro-1H-indazol-7-yl)-1-hydroxy-2-methylpropan-2-yl)piperidine-1-carbonyl)glycine]",0.0001 to 10 µM,0.0001 to 10 µM
"OC(c1ccccc1F)c1cccc2cncn12 (centres unmarked) [Compound P-0066, (2-fluorophenyl)(imidazo[1,5-a]pyridin-5-yl)methanol]",0.0001 to 10 µM,0.0001 to 10 µM
"CCC(=O)N1CCC(C(F)(F)C(O)c2cc(Cl)cc3[nH]ncc23)CC1 (centres unmarked) [Compound P-0577, 1-(4-(2-(6-chloro-1H-indazol-4-yl)-1,1-difluoro-2-hydroxyethyl)piperidin-1-yl) propan-1-one]",0.0001 to 10 µM,0.0001 to 10 µM
"COCC(=O)N1CCC(C(F)(F)[C@H](O)c2c3c(cc4cn[nH]c24)CC3)CC1 [Compound P-0614, (R)-1-(4-(2-(5,6-dihydro-1H-cyclobuta[f]indazol-7-yl)-1,1-difluoro-2-hydroxyethyl)piperidin-1-yl)-2-methoxyethan-1-one]",0.0001 to 10 µM,0.0001 to 10 µM
"CC(C)(C1CCN(C(=O)NCc2cnccn2)CC1)[C@H](O)c1cc(Cl)cc2cn[nH]c12 [Compound P-0680, (S)-4-(1-(5-chloro-1H-indazol-7-yl)-1-hydroxy-2-methylpropan-2-yl)-N-(pyrazin-2-ylmethyl)piperidine-1-carboxamide]",0.0001 to 10 µM,0.0001 to 10 µM
"CC(C)(C1CCN(C(=O)NC2COC2)CC1)[C@H](O)c1cc(Cl)cc2cn[nH]c12 [Compound P-0595, (S)-4-(1-(5-chloro-1H-indazol-7-yl)-1-hydroxy-2-methylpropan-2-yl)-N-(oxetan-3-yl)piperidine-1-carboxamide]",0.0001 to 10 µM,0.0001 to 10 µM
"CC(C)(C1CCN(C(=O)NCc2ccc(C#N)cc2)CC1)[C@H](O)c1cc(Cl)cc2cn[nH]c12 [Compound P-0584, (S)-4-(1-(5-chloro-1H-indazol-7-yl)-1-hydroxy-2-methylpropan-2-yl)-N-(4-cyanobenzyl) piperidine-1-carboxamide]",0.0001 to 10 µM,0.0001 to 10 µM
"OC(c1ccc(OC(F)(F)F)cc1)c1cccc2cncn12 (centres unmarked) [Compound P-0065, imidazo[1,5-a]pyridin-5-yl(4-(trifluoromethoxy)phenyl)methanol]",10 to 100 µM,0.0001 to 10 µM
"CC(C)(C1CCN(C(=O)N[C@@H]2CC[C@@H](O)C2)CC1)[C@H](O)c1cc(Cl)cc2cn[nH]c12 [Compound P-0591, 4-((S)-1-(5-chloro-1H-indazol-7-yl)-1-hydroxy-2-methylpropan-2-yl)-N-((1R,3R)-3-hydroxycyclopentyl) piperidine-1-carboxamide]",0.0001 to 10 µM,0.0001 to 10 µM
"CC(C)(C1CCN(C(=O)NC2CCS(=O)(=O)CC2)CC1)[C@H](O)c1cc(Cl)cc2cn[nH]c12 [Compound P-0674, (S)-4-(1-(5-chloro-1H-indazol-7-yl)-1-hydroxy-2-methylpropan-2-yl)-N-(1,1-dioxidotetrahydro-2H-thiopyran-4-yl)piperidine-1-carboxamide]",0.0001 to 10 µM,0.0001 to 10 µM
"CNC(=O)N1CCC(C(F)(F)[C@H](O)c2cc(Cl)cc3cn[nH]c23)CC1 [Compound P-0575, (R)-4-(2-(5-chloro-1H-indazol-7-yl)-1,1-difluoro-2-hydroxyethyl)-N-methylpiperidine-1-carboxamide]",0.0001 to 10 µM,0.0001 to 10 µM
"OC(c1ccc(Cl)c2cn[nH]c12)C1CCCCC1 (centres unmarked) [Compound P-0003, (4-chloro-1H-indazol-7-yl)(cyclohexyl)methanol]",0.0001 to 10 µM,0.0001 to 10 µM
"O=C(Nc1cccnc1)N1CCC(C(F)(F)[C@H](O)c2c3c(cc4cn[nH]c24)CC3)CC1 [Compound P-0636, (R)-4-(2-(5,6-dihydro-1H-cyclobuta[f]indazol-7-yl)-1,1-difluoro-2-hydroxyethyl)-N-(pyridin-3-yl)piperidine-1-carboxamide]",0.0001 to 10 µM,0.0001 to 10 µM
"CC(C)(C1CCN(C(=O)NCS(C)(=O)=O)CC1)[C@H](O)c1cc(Cl)cc2cn[nH]c12 [Compound P-0579, (S)-4-(1-(5-chloro-1H-indazol-7-yl)-1-hydroxy-2-methylpropan-2-yl)-N-((methylsulfony)methyl)piperidine-1-carboxamide]",0.0001 to 10 µM,0.0001 to 10 µM
"O=C(c1ccc(Cl)cn1)N1CCC(C(F)(F)[C@H](O)c2c3c(cc4cn[nH]c24)CC3)CC1 [Compound P-0621, (R)-(5-chloropyridin-2-yl)(4-(2-(5,6-dihydro-1H-cyclobuta[f]indazol-7-yl)-1,1-difluoro-hydroxyethyl)piperidin-1-yl) methanone]",0.0001 to 10 µM,0.0001 to 10 µM
"CC1(CNC(=O)N2CCC(C(C)(C)[C@H](O)c3cc(Cl)cc4cn[nH]c34)CC2)CC1 [Compound P-0599, (S)-4-(1-(5-chloro-1H-indazol-7-yl)-1-hydroxy-2-methylpropan-2-yl)-N-((1-methylcyclopropyl)methyl)piperidine-1-carboxamide]",0.0001 to 10 µM,0.0001 to 10 µM
"N#CCC(=O)N1CCC(C(F)(F)[C@H](O)c2c3c(cc4cn[nH]c24)CC3)CC1 [Compound P-0613, (R)-3-(4-(2-(5,6-dihydro-1H-cyclobuta[f]indazol-7-yl)-1,1-difluoro-2-hydroxyethyl)piperidin-1-yl)-3-oxopropanenitrile]",0.0001 to 10 µM,0.0001 to 10 µM
"CC(C)(C1CCN(C(=O)NCc2ccnnc2)CC1)[C@H](O)c1cc(Cl)cc2cn[nH]c12 [Compound P-0681, (S)-4-(1-(5-chloro-1H-indazol-7-yl)-1-hydroxy-2-methylpropan-2-yl)-N-(pyridazin-4-ylmethyl)piperidine-1-carboxamide]",0.0001 to 10 µM,0.0001 to 10 µM
"CC(C)(C1CCN(C(=O)CN2CCS(=O)(=O)CC2)CC1)[C@H](O)c1cc(Cl)cc2cn[nH]c12 [Compound P-0500, (S)-1-(4-(1-(5-chloro-1H-indazol-7-yl)-1-hydroxy-2-methylpropan-2-yl)piperidin-1-yl)-2-(1,1-dioxidothiomorpholino) ethan-1-one]",,0.0001 to 10 µM

# Source: patent US10508085B2, “Compounds and methods for IDO and TDO modulation, and indications therefor” (Plexxikon Inc., priority 2016, dated 2019)
